# Ends that are not written are not given here.
# Key:
# [1] = test system: Escherichia coli D31 CGSC 5165; format: cell-based; details: highest concentration tested 15 μM
# Protocol: (§1) Six different strains of bacteria were streaked on LB-Miller agar plates from a frozen glycerol stock derived from the original samples shipped from CGSC (Coli Genetic Stock Center, Yale University) or ATCC (American Type Culture Collection) (Escherichia coli D31 CGSC 5165 ([Burman, Nordstrom & Boman, 1968]), Staphylococcus aureus ATCC 35556. Pseudomonas aeruginosa PA-01 ATCC 47085, Acinetobacter baumannii ATCC 19606). For each of the strains a liquid overnight culture was prepared using a single colony into fresh LB broth and placed in a shaking incubator for ~ 18 hours at 37 C at 225 rpm. After the incubation period, a 1:200 dilution was made in fresh LB broth and then used for experimentation. Minimal Inhibitory Concentration (MIC) determinations were performed using mid-log phase bacteria diluted to 5 x 10^5 CFU/mL. Next, 90 μL of this diluted culture was then pipetted into a sterile 96-well plate that contains serially diluted aliquots of the peptide variants to consist of a total volume of 100 μL. This plate was then incubated for 18 hours at 37 C. Bacterial growth was determined by taking an OD600 measurement using a Spectramax M5 multimode plate reader post incubation. Minimal Bactericidal Concentration (MBC) was performed by taking 1 μL of the culture from the MIC plate and then pipetting it on to a fresh LB agar plate. After plating this culture, the plate was then incubated overnight at 37 C. MBC was determined by the growth or the lack of growth from each well on the agar plate.
# (§2) The ability of L1 and the hydrophobic variants to act as antimicrobials was investigated using the Minimal Inhibitory Concentration (MIC) and Minimal Bactericidal Concentration (MBC) assays as previously described ([Wiegand, Hilpert & Hancock, 2008]). The MIC is determined as the lowest concentration of peptide required to inhibit bacterial growth in solution, while the MBC is the lowest concentration required to act in a bactericidal mechanism (as opposed to bacteriostatic) and is determined by plating MIC cultures on antimicrobial-free media. Peptides were screened against E. coli, S. aureus, A. baumannii, P. aeruginosa, B. subtilis, and K. pneumoniae.
# [2] = test system: Staphylococcus aureus ATCC 35556; format: cell-based; details: highest concentration tested 15 μM
# Protocol: as §1, §2
# [3] = test system: Pseudomonas aeruginosa PA-01 ATCC 47085; format: cell-based; details: highest concentration tested 15 μM
# Protocol: as §1, §2
# K. pneumoniae = format: cell-based; details: highest concentration tested 15 μM
# Protocol: as §1, §2
# B. subtilis = format: cell-based; details: highest concentration tested 15 μM
# Protocol: as §1, §2
# [4] = test system: Acinetobacter baumannii ATCC 19606; format: cell-based; details: highest concentration tested 15 μM
# Protocol: as §1, §2
# [5] = Red edge excitation shift (REES) solution aggregation assay; format: physicochemical; details: 2 μM peptide in PBS pH 7.0, λex 280 to 307 nm, emission 310 to 410 nm, Trp fluorescence, average of three replicates
# From the text: All fluorescence spectroscopy experiments were preformed using a JY-Horiba Fluoromax4 instrument. Excitation and emission slit widths were kept consistent at 2.5 nm. Semi-micro quartz cuvettes were utilized for each experiment. The following formula was used to calculate a spectral barycenter for each experiment: (1) B=∑λ*i/∑i where B is the barycenter, λ is the wavelength, and i is the intensity at the specified wavelength. An entire emission spectrum from 300-400 was used the carry out the calculation of barycenter.
# Red edge excitation shift (REES) experiments utilized excitation at 6 different wavelengths (λex = 280, 290, 295, 300, 305, and 307 nm) and the same emission range of 310 to 410 nm. Samples were similarly prepared as above. A blank only containing PBS buffer was used as background to correct the spectra after each addition.
# Aggregation of peptides was assessed utilizing the intrinsic fluorescence properties of the Trp residue in the L1 sequence. […] Differences in the side chain motion/dynamics of the Trp residue and the local environment around the Trp can be observed by monitoring the red-edge excitation shifts (REES). […]
# [6] = 1 μL of MIC plate culture on LB agar, overnight at 37 C
# [7] = LB broth, 5 x 10^5 CFU/mL, 18 hours at 37 C, OD600
sequence,measurement,setting,value
FFKEFWTKMKGAGKAFFGKFKGFF [L1F],MBC E. coli,[1]; [6],>15 µM
same,MIC E. coli,[1]; [7],0.94 µM
same,MBC S. aureus,[2]; [6],1.88 µM
same,MIC S. aureus,[2]; [7],0.94 µM
same,MBC P. aeruginosa,[3]; [6],>15 µM
same,MIC P. aeruginosa,[3]; [7],7.5 µM
same,MBC K. pneumoniae,K. pneumoniae; [6],7.5 µM
same,MIC K. pneumoniae,K. pneumoniae; [7],1.88 µM
same,MBC B. subtilis,B. subtilis; [6],1.88 µM
same,MIC B. subtilis,B. subtilis; [7],1.88 µM
same,MBC A. baumannii,[4]; [6],0.938 µM
same,MIC A. baumannii,[4]; [7],0.47 µM
same,REES total shift,[5],~ 2 nm

# Source: article PMC9114170, “Investigation of the Role of Hydrophobic Amino Acids on the Structure-Activity Relationship in the Antimicrobial Venom Peptide Ponericin L1” (The Journal of membrane biology, 2021)
